The nature of series [1]: Hygroscopicity (water absorption on exposure to relative humidity). Format: physicochemical. An excerpt: As used herein the term non-hygroscopic in relation to crystalline Rigosertib Sodium refers to less than 1.0% (w/w) absorption of water, by the crystalline Rigosertib Sodium as determined, for example, by TGA when exposed to 60% RH for 7 days at RT, or preferably 80% RH for 7 days at RT.

Series [2] in a line: Solid state stability on storage. It counts as physicochemical.
For series [3] the following is noted: as described in U.S. Pat. No. 8,476,320; cited from earlier work.

For the molecule `COc1cc(OC)c(/C=C/S(=O)(=O)Cc2ccc(OC)c(NCC(=O)O)c2)c(OC)c1` [Rigosertib Sodium Form A, Rigosertib Sodium], in series [1] (non-hygroscopic defined as less than 1.0% (w/w) absorption of water), the hygroscopicity result was “non-hygroscopic”. Also, the “hygroscopicity at relative humidity” value in series [1] (up to about 80% relative humidity, about 7 days, 25° C.) is “substantially non-hygroscopic”. The “stability of the solid state form” value in series [2] was “stable”.
With `COc1cc(OC)c(/C=C/S(=O)(=O)Cc2ccc(OC)c(NCC(=O)O)c2)c(OC)c1` [Amorphous Rigosertib Sodium, Rigosertib Sodium], the “hygroscopicity (water absorption)” value in series [3] was “readily absorbs water after complete drying”.
For the molecule `COc1cc(OC)c(/C=C/S(=O)(=O)Cc2ccc(OC)c(NCC(=O)O)c2)c(OC)c1` [Rigosertib Sodium Form E, Rigosertib Sodium], in series [2] (at RT), the “time for which the form is stable” value is “at least 4 M”.

These data come from patent US12655096B2, “Crystalline polymorphs of Rigosertib sodium” (ASSIA CHEMICAL INDUSTRIES LTD., priority 2018, dated 2026).
